ChEMBL document CHEMBL1201862, “PubChem BioAssay data set” (2004)
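96-well plates; 48 h exposure; 5 concentrations. Endpoints by linear interpolation between flanking doses. Not reached: highest tested concentration assigned. Abbreviation: GI50, concentration required for 50% inhibition of growth.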 Calls of active or inactive are those of the source. Cut-off read from the data, not from the text of the source: active = GI50 up to about 1.1 µM and inactive = higher.

Assays:
Assay in all cases: NCI tumour cell line growth inhibition, 48 h
HOP-92 = tested on: HOP-92
COLO 205 = tested on: COLO 205
HCC 2998 = tested on: HCC 2998
SK-MEL-28 = tested on: SK-MEL-28
OVCAR-4 = tested on: OVCAR-4
SF-268 = tested on: SF-268
SF-539 = tested on: SF-539
ACHN = tested on: ACHN
OVCAR-3 = tested on: OVCAR-3
UACC-257 = tested on: UACC-257
SNB-75 = tested on: SNB-75
OVCAR-5 = tested on: OVCAR-5
MDA-MB-435 = tested on: MDA-MB-435
DU-145 = tested on: DU-145
NCI-H226 = tested on: NCI-H226
HCT-15 = tested on: HCT-15
SNB-19 = tested on: SNB-19
HOP-62 = tested on: HOP-62
SF-295 = tested on: SF-295
CAKI-1 = tested on: CAKI-1

Measured: GI50

COc1ccc(-c2cn3c(nc4ccccc43)c(/C=C/c3cccs3)n2)cc1
inactive: HOP-92 16.9 µM | COLO 205 29.8 µM | HCC 2998 49.5 µM | SK-MEL-28 80 µM | OVCAR-4 49.7 µM | SF-268 59.2 µM | SF-539 89.7 µM | ACHN > 100 µM | OVCAR-3 21.6 µM | UACC-257 62.7 µM | SNB-75 52.6 µM | OVCAR-5 > 100 µM | MDA-MB-435 4.28 µM | DU-145 > 100 µM | NCI-H226 > 100 µM | SNB-19 92.3 µM | HOP-62 83 µM
26.7 µM: HCT-15

NS(=O)(=O)c1nnc(NS(=O)(=O)c2cccc3cccnc23)s1
inactive: HOP-92 > 100 µM | COLO 205 > 100 µM | HCC 2998 > 100 µM | SK-MEL-28 > 100 µM | OVCAR-4 > 100 µM | SF-268 > 100 µM | SF-539 > 100 µM | ACHN > 100 µM | SF-295 > 100 µM | CAKI-1 > 100 µM | OVCAR-3 > 100 µM | UACC-257 > 100 µM | OVCAR-5 > 100 µM | MDA-MB-435 > 100 µM | DU-145 > 100 µM | NCI-H226 > 100 µM | SNB-19 > 100 µM | HOP-62 > 100 µM
> 100 µM: HCT-15

S=c1nc(N2CCCCC2)c2cn[nH]c2[nH]1
87.9 µM: HCT-15
inactive: COLO 205 28.8 µM | HCC 2998 44 µM | SK-MEL-28 65.6 µM | OVCAR-4 93.5 µM | SF-268 78 µM | SF-539 52.6 µM | ACHN 54.6 µM | SF-295 59.6 µM | CAKI-1 27.7 µM | OVCAR-3 54.8 µM | UACC-257 98.9 µM | SNB-75 > 100 µM | OVCAR-5 > 100 µM | MDA-MB-435 46.1 µM | DU-145 59.7 µM | NCI-H226 > 100 µM | SNB-19 > 100 µM | HOP-62 > 100 µM

O=C1CC(c2ccccc2)Oc2ccccc21 (stereo unspecified) [FLAVANONE]
inactive: HOP-92 24.9 µM | COLO 205 33.6 µM | HCC 2998 76.9 µM | SK-MEL-28 > 100 µM | OVCAR-4 66.1 µM | SF-268 64.7 µM | SF-539 21.8 µM | ACHN 47.6 µM | SF-295 58.1 µM | CAKI-1 48.3 µM | UACC-257 77.3 µM | SNB-75 63.4 µM | MDA-MB-435 31.9 µM | DU-145 67.6 µM | NCI-H226 32.4 µM | SNB-19 23.1 µM | HOP-62 48.4 µM
26.1 µM: HCT-15

COC1=C(OC)C(=O)C(Cc2c(Cl)nc3sccn23)=C(C)C1=O
inactive: COLO 205 15.7 µM | HCC 2998 15.7 µM | SK-MEL-28 12 µM | OVCAR-4 2.96 µM | SF-268 14.5 µM | SF-539 12.5 µM | ACHN 12.4 µM | SF-295 12.4 µM | CAKI-1 14.3 µM | OVCAR-3 12.7 µM | UACC-257 3.32 µM | OVCAR-5 16.9 µM | MDA-MB-435 8.91 µM | DU-145 13.5 µM | SNB-19 13.5 µM | HOP-62 16.1 µM
12.6 µM: HCT-15

COc1c(F)c(F)c(C(=O)/C=C2\Nc3ccccc3NC2=O)c(F)c1F
inactive: HOP-92 > 10 µM | COLO 205 > 10 µM | HCC 2998 > 10 µM | SK-MEL-28 6.81 µM | OVCAR-4 2.48 µM | SF-268 9.1 µM | SF-295 5.52 µM | CAKI-1 > 10 µM | UACC-257 > 10 µM | SNB-75 2.25 µM | MDA-MB-435 > 10 µM | DU-145 > 10 µM | HOP-62 4.41 µM
> 10 µM: HCT-15

CC(C)[Si]1(C(C)C)OCC2OC3(CO)C(Oc4nc(=O)ccn43)C2O[Si](C(C)C)(C(C)C)O1 (stereo unspecified)
15 µM: HCT-15
inactive: HOP-92 16.5 µM | COLO 205 9.44 µM | HCC 2998 12.5 µM | SK-MEL-28 15 µM | OVCAR-4 13.1 µM | SF-268 17 µM | SF-539 15 µM | ACHN 15.5 µM | SF-295 15 µM | CAKI-1 15.7 µM | UACC-257 14.7 µM | SNB-75 15 µM | MDA-MB-435 15 µM | DU-145 14 µM | NCI-H226 15.2 µM | SNB-19 15.9 µM | HOP-62 15 µM

Cc1nn(C(=O)Cc2ccccc2)c2c1C(c1ccc([N+](=O)[O-])cc1)SC(=N)N2 (stereo unspecified)
inactive: COLO 205 > 100 µM | HCC 2998 > 100 µM | SK-MEL-28 > 100 µM | SF-268 > 100 µM | SF-539 > 100 µM | ACHN > 100 µM | SF-295 > 100 µM | CAKI-1 > 100 µM | UACC-257 > 100 µM | MDA-MB-435 > 100 µM | DU-145 > 100 µM | HOP-62 > 100 µM
> 100 µM: HCT-15

N#CCC12CC=CCC1=C(O)C(=O)c1ccc(O)cc12 (stereo unspecified)
> 100 µM: HCT-15
inactive: COLO 205 > 100 µM | HCC 2998 > 100 µM | SK-MEL-28 > 100 µM | OVCAR-4 52 µM | SF-268 > 100 µM | SF-539 > 100 µM | ACHN > 100 µM | SF-295 > 100 µM | CAKI-1 > 100 µM | OVCAR-3 > 100 µM | UACC-257 > 100 µM | SNB-75 67.6 µM | OVCAR-5 > 100 µM | MDA-MB-435 > 100 µM | DU-145 > 100 µM | NCI-H226 68.5 µM | SNB-19 > 100 µM | HOP-62 > 100 µM

CCN(CC)C(=S)N/N=C1\C(=O)Nc2ccccc21
0.413 µM: HCT-15
active: COLO 205 0.659 µM | OVCAR-4 0.771 µM | SF-539 0.468 µM | ACHN 0.42 µM | SF-295 0.45 µM | CAKI-1 0.895 µM | OVCAR-3 0.192 µM | NCI-H226 0.59 µM | HOP-62 0.431 µM
inactive: HOP-92 2.79 µM | SK-MEL-28 > 100 µM | SF-268 > 100 µM | UACC-257 1.64 µM | SNB-75 1.31 µM | OVCAR-5 6.18 µM | MDA-MB-435 2.51 µM | DU-145 > 100 µM | SNB-19 1.69 µM

CCOC(=O)N(C)C1(c2ccccc2)CCN(CCCC(=O)c2ccc(F)cc2)CC1
35.1 µM: HCT-15
active: SNB-19 0.0647 µM
inactive: HOP-92 34.8 µM | COLO 205 15.4 µM | HCC 2998 21 µM | SK-MEL-28 21 µM | OVCAR-4 40.2 µM | SF-268 90.4 µM | SF-539 28.6 µM | ACHN 84.1 µM | SF-295 42.4 µM | CAKI-1 2.16 µM | OVCAR-3 44 µM | UACC-257 20.3 µM | OVCAR-5 49 µM | MDA-MB-435 23.9 µM | DU-145 > 100 µM | NCI-H226 35.4 µM | HOP-62 38.5 µM

Cc1cc(N)c2cc(NC(=O)Nc3ccc4nc(C)cc(N)c4c3)ccc2n1
> 100 µM: HCT-15
inactive: HOP-92 > 100 µM | COLO 205 > 100 µM | HCC 2998 > 100 µM | SK-MEL-28 > 100 µM | OVCAR-4 > 100 µM | SF-268 > 100 µM | ACHN > 100 µM | SF-295 89.5 µM | CAKI-1 > 100 µM | OVCAR-3 > 100 µM | UACC-257 > 100 µM | OVCAR-5 > 100 µM | MDA-MB-435 > 100 µM | DU-145 > 100 µM | NCI-H226 > 100 µM | SNB-19 > 100 µM | HOP-62 61.8 µM
